In US12077503B2, “Substituted cyclic amides and their use as herbicides” (FMC CORPORATION, priority 2015, dated 2024):

Experiments:
Format in all cases: in vivo
[1] = system: giant foxtail (Setaria faberi); test: Test G Post-Emergence Protocol; conditions: Setaria faberi, post-emergence, 312 h; for pest or weed control at 15.625 g/ha: 15.625 g ai/ha, evaluated after 13 days (100=total damage to plant; 0=no damage to plant), read-out: Foxtail, Giant damage rating; for pest or weed control at 62.5 g/ha: 62.5 g ai/ha, read-out: Foxtail, Giant damage rating (100=total damage to plant; 0=no damage to plant); for pest or weed control at 62.5 g/ha / pest or weed control at 250 g/ha: evaluated after 13 days; for pest or weed control at 250 g/ha: 250 g ai/ha, read-out: damage to plant, Foxtail, Giant (100=total damage to plant; 0=no damage to plant)
How it was run: (§1)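 Foliar application was made 8 days after sowing, using an aqueous spray of the active in acetone/water (50:50) with 0.5% Tween 20, at doses of 15.625, 62.5 or 250 g/ha. Injury was assessed 13 days later, where 100 meant the plant was fully damaged.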

corn (Zea mays) [2] = test: Test G Post-Emergence Protocol; conditions: Zea mays, post-emergence, 312 h; for plant injury at 15.625 g/ha: 15.625 g ai/ha, evaluated after 13 days (100=total damage to plant; 0=no damage to plant), read-out: Corn damage rating; for plant injury at 62.5 g/ha: 62.5 g ai/ha, read-out: Corn damage rating (100=total damage to plant; 0=no damage to plant); for plant injury at 62.5 g/ha / plant injury at 250 g/ha: evaluated after 13 days; for plant injury at 250 g/ha: 250 g ai/ha, read-out: damage to plant, Corn (100=total damage to plant; 0=no damage to plant)
How it was run: as §1

[3] = system: ivy-leaved morning glory (Ipomoea hederacea); test: Test G Post-Emergence Protocol; conditions: Ipomoea, post-emergence, 312 h; for pest or weed control at 15.625 g/ha: 15.625 g ai/ha, evaluated after 13 days (100=total damage to plant; 0=no damage to plant), read-out: Morningglory, Ivy-leaved damage rating; for pest or weed control at 62.5 g/ha: 62.5 g ai/ha, read-out: Morningglory, Ivy-leaved damage rating (100=total damage to plant; 0=no damage to plant); for pest or weed control at 62.5 g/ha / pest or weed control at 250 g/ha: evaluated after 13 days; for pest or weed control at 250 g/ha: 250 g ai/ha, read-out: damage to plant, Morningglory, Ivy-leaved (100=total damage to plant; 0=no damage to plant)
How it was run: as §1

[4] = system: barnyardgrass (Echinochloa crus-galli); test: Test G Post-Emergence Protocol; conditions: Echinochloa crus-galli, post-emergence, 312 h; for pest or weed control at 15.625 g/ha: 15.625 g ai/ha, evaluated after 13 days (100=total damage to plant; 0=no damage to plant), read-out: Barnyardgrass damage rating; for pest or weed control at 62.5 g/ha: 62.5 g ai/ha, read-out: Barnyardgrass damage rating (100=total damage to plant; 0=no damage to plant); for pest or weed control at 62.5 g/ha / pest or weed control at 250 g/ha: evaluated after 13 days; for pest or weed control at 250 g/ha: 250 g ai/ha, read-out: damage to plant, Barnyardgrass (100=total damage to plant; 0=no damage to plant)
How it was run: as §1

[5] = system: velvetleaf (Abutilon theophrasti); test: Test G Post-Emergence Protocol; conditions: Abutilon theophrasti, post-emergence, 312 h; for pest or weed control at 15.625 g/ha: 15.625 g ai/ha, evaluated after 13 days (100=total damage to plant; 0=no damage to plant), read-out: Velvetleaf damage rating; for pest or weed control at 62.5 g/ha: 62.5 g ai/ha, read-out: Velvetleaf damage rating (100=total damage to plant; 0=no damage to plant); for pest or weed control at 62.5 g/ha / pest or weed control at 250 g/ha: evaluated after 13 days; for pest or weed control at 250 g/ha: 250 g ai/ha, read-out: damage to plant, Velvetleaf (100=total damage to plant; 0=no damage to plant)
How it was run: as §1

[6] = system: redroot pigweed (Amaranthus retroflexus); test: Test G Post-Emergence Protocol; conditions: Amaranthus retroflexus, post-emergence, 312 h; for pest or weed control at 15.625 g/ha: 15.625 g ai/ha, evaluated after 13 days (100=total damage to plant; 0=no damage to plant), read-out: Pigweed, Redroot damage rating; for pest or weed control at 62.5 g/ha: 62.5 g ai/ha, read-out: Pigweed, Redroot damage rating (100=total damage to plant; 0=no damage to plant); for pest or weed control at 62.5 g/ha / pest or weed control at 250 g/ha: evaluated after 13 days; for pest or weed control at 250 g/ha: 250 g ai/ha, read-out: damage to plant, Pigweed, Redroot (100=total damage to plant; 0=no damage to plant)
How it was run: as §1

[7] = system: giant foxtail (Setaria faberi); test: Test G Pre-Emergence Protocol; conditions: Setaria faberi, pre-emergence, 312 h, evaluated after 13 days; for pest or weed control at 15.625 g/ha: 15.625 g ai/ha; for pest or weed control at 15.625 g/ha / pest or weed control at 250 g/ha: read-out: Foxtail, Giant damage rating (100=total damage to plant; 0=no damage to plant); for pest or weed control at 62.5 g/ha: 62.5 g ai/ha, 100=total damage to plant, 0=no damage to plant, read-out: plant damage rating, Foxtail, Giant; for pest or weed control at 250 g/ha: 250 g ai/ha
How it was run: (§2)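 Under a 24/16° C day/night regime with 14 h light and 65% humidity, sown pots were sprayed after one day with compound (15.625, 62.5 or 250 g/ha; 50:50 acetone/water, 0.5% Tween 20). Damage was assessed visually 13 days later, 0 to 100.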

corn (Zea mays) [8] = test: Test G Pre-Emergence Protocol; conditions: Zea mays, pre-emergence, 312 h, evaluated after 13 days; for plant injury at 15.625 g/ha: 15.625 g ai/ha; for plant injury at 15.625 g/ha / plant injury at 250 g/ha: read-out: Corn damage rating (100=total damage to plant; 0=no damage to plant); for plant injury at 62.5 g/ha: 62.5 g ai/ha, 100=total damage to plant, 0=no damage to plant, read-out: plant damage rating, Corn; for plant injury at 250 g/ha: 250 g ai/ha
How it was run: as §2

[9] = system: ivy-leaved morning glory (Ipomoea hederacea); test: Test G Pre-Emergence Protocol; conditions: Ipomoea, pre-emergence, 312 h, evaluated after 13 days; for pest or weed control at 15.625 g/ha: 15.625 g ai/ha, read-out: Morning-glory, Ivy-leaved damage rating (100=total damage to plant; 0=no damage to plant); for pest or weed control at 62.5 g/ha: 62.5 g ai/ha, 100=total damage to plant, 0=no damage to plant, read-out: plant damage rating, Morningglory, Ivy-leaved; for pest or weed control at 250 g/ha: 250 g ai/ha, read-out: Morningglory, Ivy-leaved damage rating (100=total damage to plant; 0=no damage to plant)
How it was run: as §2

[10] = system: barnyardgrass (Echinochloa crus-galli); test: Test G Pre-Emergence Protocol; conditions: Echinochloa crus-galli, pre-emergence, 312 h, evaluated after 13 days; for pest or weed control at 15.625 g/ha: 15.625 g ai/ha, read-out: Barnyard grass damage rating (100=total damage to plant; 0=no damage to plant); for pest or weed control at 62.5 g/ha: 62.5 g ai/ha, 100=total damage to plant, 0=no damage to plant, read-out: plant damage rating, Barnyardgrass; for pest or weed control at 250 g/ha: 250 g ai/ha, read-out: Barnyardgrass damage rating (100=total damage to plant; 0=no damage to plant)
How it was run: as §2

[11] = system: velvetleaf (Abutilon theophrasti); test: Test G Pre-Emergence Protocol; conditions: Abutilon theophrasti, pre-emergence, 312 h, evaluated after 13 days; for pest or weed control at 15.625 g/ha: 15.625 g ai/ha; for pest or weed control at 15.625 g/ha / pest or weed control at 250 g/ha: read-out: Velvetleaf damage rating (100=total damage to plant; 0=no damage to plant); for pest or weed control at 62.5 g/ha: 62.5 g ai/ha, 100=total damage to plant, 0=no damage to plant, read-out: plant damage rating, Velvetleaf; for pest or weed control at 250 g/ha: 250 g ai/ha
How it was run: as §2

[12] = system: redroot pigweed (Amaranthus retroflexus); test: Test G Pre-Emergence Protocol; conditions: Amaranthus retroflexus, pre-emergence, 312 h, evaluated after 13 days; for pest or weed control at 15.625 g/ha: 15.625 g ai/ha; for pest or weed control at 15.625 g/ha / pest or weed control at 250 g/ha: read-out: Pigweed, Redroot damage rating (100=total damage to plant; 0=no damage to plant); for pest or weed control at 62.5 g/ha: 62.5 g ai/ha, 100=total damage to plant, 0=no damage to plant, read-out: plant damage rating, Pigweed, Redroot; for pest or weed control at 250 g/ha: 250 g ai/ha
How it was run: as §2

CN1C[C@@H](c2ccc(C(F)(F)F)cc2)[C@H](C(=O)Nc2ccon2)C1=O (racemic) [Compound 1506]
0%: pest or weed control at 15.625 g/ha [1] | pest or weed control at 62.5 g/ha [1] | pest or weed control at 250 g/ha [1] | plant injury at 15.625 g/ha (corn (Zea mays) [2]) | plant injury at 62.5 g/ha (corn (Zea mays) [2]) | plant injury at 250 g/ha (corn (Zea mays) [2]) | pest or weed control at 15.625 g/ha [3] | pest or weed control at 62.5 g/ha [3] | pest or weed control at 250 g/ha [3] | pest or weed control at 15.625 g/ha [4] | pest or weed control at 62.5 g/ha [4] | pest or weed control at 250 g/ha [4] | pest or weed control at 15.625 g/ha [5] | pest or weed control at 62.5 g/ha [5] | pest or weed control at 250 g/ha [5] | pest or weed control at 15.625 g/ha [6] | pest or weed control at 62.5 g/ha [6] | pest or weed control at 250 g/ha [6] | pest or weed control at 15.625 g/ha [7] | pest or weed control at 62.5 g/ha [7] | pest or weed control at 250 g/ha [7] | plant injury at 15.625 g/ha (corn (Zea mays) [8]) | plant injury at 62.5 g/ha (corn (Zea mays) [8]) | plant injury at 250 g/ha (corn (Zea mays) [8]) | pest or weed control at 15.625 g/ha [9] | pest or weed control at 62.5 g/ha [9] | pest or weed control at 250 g/ha [9] | pest or weed control at 15.625 g/ha [10] | pest or weed control at 62.5 g/ha [10] | pest or weed control at 250 g/ha [10] | pest or weed control at 15.625 g/ha [11] | pest or weed control at 62.5 g/ha [11] | pest or weed control at 250 g/ha [11] | pest or weed control at 15.625 g/ha [12] | pest or weed control at 62.5 g/ha [12] | pest or weed control at 250 g/ha [12]

CN1C[C@@H](c2ccc(C(F)(F)F)cc2)[C@H](C(=O)Nc2cc(C(F)(F)F)no2)C1=O (racemic) [Compound 1511]
0%: pest or weed control at 15.625 g/ha [1] | pest or weed control at 62.5 g/ha [1] | pest or weed control at 250 g/ha [1] | plant injury at 15.625 g/ha (corn (Zea mays) [2]) | plant injury at 62.5 g/ha (corn (Zea mays) [2]) | plant injury at 250 g/ha (corn (Zea mays) [2]) | pest or weed control at 15.625 g/ha [3] | pest or weed control at 62.5 g/ha [3] | pest or weed control at 250 g/ha [3] | pest or weed control at 15.625 g/ha [4] | pest or weed control at 62.5 g/ha [4] | pest or weed control at 250 g/ha [4] | pest or weed control at 15.625 g/ha [5] | pest or weed control at 62.5 g/ha [5] | pest or weed control at 250 g/ha [5] | pest or weed control at 15.625 g/ha [6] | pest or weed control at 62.5 g/ha [6] | pest or weed control at 250 g/ha [6] | pest or weed control at 15.625 g/ha [7] | pest or weed control at 62.5 g/ha [7] | pest or weed control at 250 g/ha [7] | plant injury at 15.625 g/ha (corn (Zea mays) [8]) | plant injury at 62.5 g/ha (corn (Zea mays) [8]) | plant injury at 250 g/ha (corn (Zea mays) [8]) | pest or weed control at 15.625 g/ha [9] | pest or weed control at 62.5 g/ha [9] | pest or weed control at 250 g/ha [9] | pest or weed control at 15.625 g/ha [10] | pest or weed control at 62.5 g/ha [10] | pest or weed control at 250 g/ha [10] | pest or weed control at 15.625 g/ha [11] | pest or weed control at 62.5 g/ha [11] | pest or weed control at 250 g/ha [11] | pest or weed control at 15.625 g/ha [12] | pest or weed control at 62.5 g/ha [12] | pest or weed control at 250 g/ha [12]
